Tests used:
[1] = Mass spectrometric analysis of mitochondria from mice given mito2HOBA in drinking water; type: in vivo
Excerpt: (§1) Mito2HOBA is a water-soluble compound which can be supplied in the media and provided to animals in the drinking water.

[2] = Tolerability in animal experiments; type: in vivo; conditions: doses from 0.1-0.3 g/L in drinking water
Excerpt: as §1

[3] = tested on: SOD2 acetylation in human arterioles; assay: SOD2 acetylation in human arterioles treated ex vivo (Western blot); type: cell-based; conditions: arterioles from hypertensive subjects, 0.5 μM, 24 hours, DMEM
Description: FIGS. 8A-D show Western blots of mitochondrial isoLGs (A) in human arterioles from normotensive and hypertensive subjects (n=5), (B) development of mitochondria-targeted isoLG scavenger mito2HOBA and (C, D) SOD2 acetylation in human arterioles isolated from normotensive and hypertensive subjects and treated ex vivo with mito2HOBA (0.5 μM, 24 hours, DMEM). Data were normalized by Complex I levels (Sham is 100%). Data are mean±SEM. *P<0.01 vs Normotensive Sham, **P<0.01 vs Hypertensive (n=5).
Arterioles (100 to 200-μm diameter) were harvested from human mediastinal fat obtained from patients during cardiac surgery enrolled in the Risk of Oxygen during Cardiac Surgery (ROCS) randomized clinical trial with essential hypertension (BP>140/90 mmHg) and normotensive subjects as previously described for Western blot analysis of SOD2 and SOD2 acetylation. Full informed consent was obtained for all tissue samples.
Hypertension is associated with inactivation of mitochondrial deacetylase Sirt3 and hyperacetylation of mitochondrial superoxide dismutase (SOD2). To study the potential role of mitochondrial isoLGs in Sirt3 inactivation, we developed the mitochondria-targeted isoLG scavenger mito2HOBA (FIG. 8B). Mito2HOBA selectively accumulates in the mitochondria due to its lipophilic cation triphenylphosphonium. […]

[4] = tested on: human aortic endothelial cells (HAEC); assay: Mitochondrial superoxide in human aortic endothelial cells stimulated with angiotensin II plus TNFα (mitoSOX HPLC); type: cell-based; conditions: 50 nM, angiotensin II plus TNFα for 4-hours
Description: FIGS. 9A and B show the effect of mito2HOBA on mitochondrial superoxide and cardiolipin oxidation in human aortic endothelial cells induced by angiotensin II plus TNFα. (A) Mitochondrial superoxide was measured by HPLC analysis of mitoSOX-superoxide specific product, mito-2-hydroxyethidium (Mito-2OH-Et+). […] (B) Cardiolipin oxidation induced by Angiotensin II+TNFα measured my LC/MS. […] Data are mean±SEM. *P<0.01 vs Control, **P<0.01 vs Angiotensin II+TNFα (n=4).
Human aortic endothelial cells (HAEC) were purchased from Lonza (Chicago, IL) and cultured in EGM-2 medium supplemented with 2% FBS but without antibiotics. On the day before the study, the FBS concentration was reduced to 1%.
We tested if mito2HOBA reduces mitochondrial oxidative stress in human aortic endothelial cells (HAEC) stimulated with angiotensin II plus TNFα for 4-hours (FIG. 9). Indeed, supplementation of HAEC with mito2HOBA (50 nM) reduced mitochondrial superoxide production stimulated by TNF[…] and Ang II as measured by accumulation of specific superoxide-MitoSOX product, 2-OH-Mito-Ethidium.

aortic superoxide = assay: Aortic superoxide by HPLC (mitoSOX, DHE) in angiotensin II-infused mice; type: in vivo, mouse
Description: (§2) FIGS. 12A-D show the effect of mito2HOBA supplementation on mitochondrial superoxide (A), vascular superoxide (B), endothelial nitric oxide (C) and endothelial-dependent relaxation (D) in angiotensin II-infused mice. Mitochondrial and vascular O2⋅ was measured by mitochondria-targeted superoxide probe mitoSOX (1 μM) or untargeted superoxide probe DHE (50 μM) using HPLC.46 Endothelial nitric oxide was analyzed by NO spin trap Fe(DETC)2 and ESR.47 C57B1/6J mice were infused with Ang II and mito2HOBA was provided in the drinking water (0.1 g/L). […] Results are mean±SEM. *P<0.01 vs Sham, **P<0.01 vs Ang II (n=6).
Mouse aortic segments were loaded with DHE (50 μM) or mitochondria-targeted mitoSOX (1 μM) in KHB buffer by 30-minute incubation in a tissue culture incubator at 37° C. […] The tissue homogenate was passed through a 0.22 μm syringe filter and methanol filtrates were analyzed by HPLC according to previously published protocols. The superoxide specific product 2-hydroxyethidium was detected using a C-18 reverse-phase column (Nucleosil 250 to 4.5 mm) and a mobile phase containing 0.1% trifluoroacetic acid and an acetonitrile gradient (from 37% to 47%) at a flow rate of 0.5 ml/min. 2-Hydroxyethidium was quantified by fluorescence detector using an emission wavelength of 580 nm and an excitation of 480 nm as described previously.

endothelial nitric oxide = assay: Aortic nitric oxide by ESR and Fe(DETC)2 in angiotensin II-infused mice; type: in vivo, mouse; conditions: Ang II plus mito2HOBA
Description: as §2
Nitric oxide production in aortas was quantified by ESR and colloid Fe(DETC)2 as we have described previously. All ESR samples were placed in quartz Dewar (Corning, New York, NY) filled with liquid nitrogen. ESR spectra were recorded using an EMX ESR spectrometer (Bruker Biospin Corp., Billerica, MA) and a super high Q microwave cavity. The ESR settings were as follows: field sweep, 160 Gauss; microwave frequency, 9.42 GHz; microwave power, 10 milliwatts; modulation amplitude, 3 Gauss; scan time, […]; time constant, 5.2 sec; and receiver gain, 60 dB (n=4 scans).

kidney mitochondria = assay: Respiration of kidney mitochondria from angiotensin II-infused mice (respiratory control ratio); type: in vivo, mouse; conditions: Ang II plus mito2HOBA
Description: FIGS. 13A-B show mito2HOBA reduces mPTP opening and prevents mitochondrial dysfunc¬tion. C57B1/6J mice were infused with Ang II ([…]) and mito2HOBA in the drinking water (0.1 g/L). Following 14 days of Ang II infusion the animals were sacrificed and kidneys were isolated for mitochondrial studies. Addition of CaCl2 to mitochondria above Ca2+ retention capacity led to mPTP opening and mitochondria swelling. 71 Mitochondria isolated from Ang II-infused mice had significant reduction in Ca2+ capacity due to increased mPTP opening and CypD inhibitor Cyclosporine A (CsA) rescued Ca2+ retention capacity (A). Respiratory control ratio (State 3/State 4) was measured in isolated kidney mitochondria with glutamate and malate (B). Control level is 100%. (C) Renal ATP was measured in freshly isolated tissue by luciferase-based luminescent assay. 72 Results are mean±SEM. *P<0.01 vs Sham, **P<0.01 vs Angiotensin II (n=5).
The following respiration medium was used (in mM): 125 mM KCl, 10 mM MOPS (pH 7.2), 2 mM MgCl2, 2 mM KH2PO4, 10 mM NaCl, 1 mM EGTA, 0.7 mM CaCl2, 10 mM glutamate and 2 mM malate. […] Respiratory control ratio was calculated as the rate ratio State 3 to State 4, where State 4 is the rate after ADP phosphorylation.

[5] = kidney and heart mitochondria, drinking water 0.1 g/L for 5-days

With `NCc1ccc(OCCCC[P+](c2ccccc2)(c2ccccc2)c2ccccc2)cc1O` [mito2HOBA] the “level in the mitochondrial fraction” value [1, 5] was “μM levels”, the “share accumulated in the mitochondrial fraction” value [1, 5] was 80% and the “accumulation in the mitochondria of multiple organs” value ([1]; kidney, heart and liver) was “robustly accumulated”. For the same compound, the tolerability [2] was “well tolerated”, the SOD2 acetylation [3] was “significantly reduced” and the mitochondrial superoxide production [4] was “reduced”. The aortic cellular superoxide (aortic superoxide; DHE, % compared to Sham control, Ang II plus mito2HOBA (Ang II alone 217%)) was 152%, the “increase in aortic mitochondrial superoxide” value (aortic superoxide; mitoSOX, Ang II plus mito2HOBA) was “completely prevented” and the endothelial nitric oxide (endothelial nitric oxide) was “completely prevented the decline”. For the same compound, the “mitochondrial respiration supported by glutamate plus malate” value (kidney mitochondria) was “preserved”.
